Data taken from US12134663B2, “Cationic peptides for activating Lck” (Interk Peptide Therapeutics Limited, priority 2018, dated 2024).
Where no end group is shown, it is not given here. [ ]: non-standard residue; d: D form.

Assays:
[1] = tested on: isolated human CD4+ T cells; assay: IFN-γ secretion in stimulated CD4+ T cell assay; format: cell-based; details: anti-CD3 anti-CD28 Dynabeads, 24 hours
Method: (§1) The ability of Lck activating polypeptides to alter IFN-γ secretion by isolated human CD4+ T cells in a stimulated CD4+ T cell assay was also examined. In brief, Isolated CD4+ T cells were stimulated with anti-CD3 anti-CD28 Dynabeads™ and cultured together with the Lck activating polypeptides RRRRRRRRR (SEQ ID NO: 6, IK00900) and RSKAKNPLY-RRRRRRRRR (SEQ ID NO: 24, IK14800) for 24 hours after which supernatants were assessed for IFN-γ by ELISA.
as §1, with “polypeptides comprising D amino acids” for “polypeptides”, “polypeptide” for “polypeptides RRRRRRRRR (SEQ ID NO: 6, IK00900) and”, “IK14800), or the Lck activating polypeptide RSKAKNPLY-RRRRRRRRR (SEQ ID NO: 24) comprising only D amino acids (SEQ ID NO: 129, IKD14800),” for “IK14800)”

human PBMCs = assay: IFN-γ secretion by anti-CD3 stimulated PBMCs; format: cell-based; details: 48 hours; data not shown
Method: The ability of Lck activating polypeptides to alter IFN-γ secretion by human PBMCs was examined. In brief, anti-CD3 stimulated PBMCs were cultured together with the Lck activating polypeptides RRRRRRRRR (SEQ ID NO: 6), RVKVKVVVV-RRRRRRRRR (SEQ ID NO: 58) and RSKAKNPLY-RRRRRRRRR (SEQ ID NO: 24) for 48 hours after which supernatants were collected and assessed for IFN-γ by ELISA.

[2] = tested on: anti-CD3 stimulated PBMCs; assay: IL-12p70 secretion in anti-CD3 stimulated PBMCs; format: cell-based, human; details: 24 hours
Method: The ability of Lck activating polypeptides to alter IL-12 (IL-12p70) secretion was examined further. In brief, anti-CD3 stimulated PBMCs were cultured together with the Lck activating polypeptides RVKVKVVVV-RRRRRRRRR (SEQ ID NO: 58, “IK15800”), RSKAKNPLY-RRRRRRRRR (SEQ ID NO: 24, “IK14800”), and RVKVKVVVV-RRRRRRRRR (SEQ ID NO: 58) and RSKAKNPLY-RRRRRRRRR (SEQ ID NO: 24) comprising only D amino acids (SEQ ID NO: 111, “IKD15800”, and SEQ ID NO: 129, “IKD14800”, respectively), in the presence and absence of anti-CD40L blocking antibody for 24 hours. Supernatants were assessed for IL-12p70 levels by ELISA.
The ability of Lck activating polypeptides to alter IL-12 (IL-12p70) secretion was examined relative to no peptide. In brief, PBMCs were cultured together with anti-CD3 (1 ug/ml) and the Lck activating polypeptide RSKAKNPLY-RRRRRRRRR (SEQ ID NO: 24) or RVKVKVVVV-RRRRRRRRR (SEQ ID NO: 58) for 24 or 72 hours. Supernatants were assessed for IL-12p70 levels by ELISA.

[3] = tested on: isolated human CD8+ T cells; assay: IFN-γ secretion in stimulated CD8+ T cell assay; format: cell-based; details: anti-CD3 anti-CD28 Dynabeads, 24 hours
Method: as §1, with “CD8+” for “CD4+”, “was” for “was also”
In brief, Isolated CD8+ T cells were stimulated with anti-CD3 anti-CD28 Dynabeads™ and cultured together with the Lck activating polypeptide RSKAKNPLY-RRRRRRRRR (SEQ ID NO: 24), comprising only D amino acids (SEQ ID NO: 129, IKD14800), for 24 hours after which supernatants were assessed for IFN-γ by ELISA.

[4] = tested on: isolated human CD4+ T cells; assay: IL-2 secretion from isolated stimulated CD4+ T cells; format: cell-based; details: anti-CD3 anti-CD28 Dynabeads, 0-1.25 μM, 24 hours; data not shown
Method: In brief, CD4+ and CD8+ T cells were isolated and immuno-magnetically separated from healthy human PBMCs. Levels of IL-2 were examined following anti-CD3 and anti-CD28 stimulation for 48 hours in the presence the Lck activating fusion polypeptide RSKAKNPLY-RRRRRRRRR (SEQ ID NO: 24).
The effect of Lck activating polypeptides on IL-2 secretion from CD4+ T cells in a stimulated CD4+ T cell assay was also examined. In brief, Isolated CD4+ T cells were stimulated with anti-CD3 anti-CD28 Dynabeads™ and cultured together with the Lck activating polypeptides RRRRRRRRR (SEQ ID NO: 6, “IK00900”) and RSKAKNPLY-RRRRRRRRR (SEQ ID NO: 24, “IK14800”), over a 5-concentration range plus vehicle control (0-1.25 μM) for 24 hours after which supernatants were assessed for IL-2 and IFN-γ by ELISA.

wild-type Jurkat cells [5] = assay: IL-12 secretion in stimulated wild-type Jurkat cells (ELISA); format: cell-based, human; details: biotinylated anti-CD3, anti-CD28, avidin; 48 h exposure
Method: (§2) The ability of Lck activating polypeptides to alter IL-12 secretion was examined. In brief, wild-type Jurkat cells (an immortalised line of human T lymphocyte cells) were stimulated by exposure to biotinylated anti-CD3 antibody in the presence of anti-CD28 antibody and avidin. During the culture period (48 hours) cells were exposed to test polypeptides. Cell supernatant was assayed for IL-12 at the end of 48 hours using a standard commercially available ELISA kit as described above.
In brief, cells were seeded at 1 million cells per well (12 well plate, 2 mL volume) and stimulated with Biotin-CD3, CD28, and avidin (5:5:1.25 μg). The cells were then treated with IK14800 (SEQ ID NO: 24), IK15800 (SEQ ID NO: 58), IK14804 (SEQ ID NO: 65) and IK15804 (SEQ ID NO: 66). The cells were then incubated for 48 hours at 37° C. The supernatants (100 uL, n=3), were then analyzed for IL-12 content.
In brief, wild-type Jurkat cells (am immortalised line of human T lymphocyte cells) were stimulated by exposure to biotinylated anti-CD3 antibody in the presence of anti-CD28 antibody and avidin. Cells were seeded at 1 million cells per well (12 well plate, 2 mL volume) and stimulated with Biotin-anti-CD3, anti-CD28, and avidin (5:5:1.25 μg). Cells were treated with the test peptides and then incubated for 48 hours at 37° C. The supernatants (100 ul, n=3), were then analysed for IL-2 and IL-12 content. […]

isolated CD4+ T cells = assay: IL-21R (CD360) expression in stimulated CD4+ T cell assay; format: cell-based, human; details: anti-CD3 anti-CD28 Dynabeads; data not shown
Method: The effect of Lck activating polypeptides on IL-21R (CD360) expression on CD4+ T cells in a stimulated CD4+ T cell assay was examined. In brief, Isolated CD4+ T cells were stimulated with anti-CD3 anti-CD28 Dynabeads™ and cultured together with the Lck activating polypeptides RRRRRRRRR (SEQ ID NO: 6) and RSKAKNPLY-RRRRRRRRR (SEQ ID NO: 24), after which cells were assessed for IL-21R expression by flow cytometry.

wild-type Jurkat cells [6] = assay: IL-2 secretion in stimulated wild-type Jurkat cells (ELISA); format: cell-based, human; details: biotinylated anti-CD3, anti-CD28, avidin; 48 h exposure
Method: as §2, with “In” for “The ability of Lck activating polypeptides to alter IL-12 secretion was examined. In”, “(48 hours or 72” for “(48”, “IL-2” for “IL-12”, “48 or 72” for “48”
In brief, cells were seeded at 1 million cells per well (12 well plate, 2 mL volume) and stimulated with Biotin-CD3, CD28, and avidin (5:5:1.25 μg). The cells were then treated with IK14804, and then incubated for 48 hours at 37° C. The supernatant (100 uL, n=3), was then analyzed for IL-2 content.
In brief, wild-type Jurkat cells (am immortalised line of human T lymphocyte cells) were stimulated by exposure to biotinylated anti-CD3 antibody in the presence of anti-CD28 antibody and avidin. Cells were seeded at 1 million cells per well (12 well plate, 2 mL volume) and stimulated with Biotin-anti-CD3, anti-CD28, and avidin (5:5:1.25 μg). Cells were treated with the test peptides and then incubated for 48 hours at 37° C. The supernatants (100 ul, n=3), were then analysed for IL-2 and IL-12 content. During the culture period (48 hours) cells were exposed to test polypeptide RSKAKNPLYR-(2Adod)4-NH2 (SEQ ID NO: 128). Cell supernatant was assayed for IL-2 and IL-12 at the end of 48 hours using standard commercially available ELISA kit as described above.

wild-type Jurkat cells [7] = assay: IL-2R alpha (CD25) expression in PMA/ionomycin stimulated Jurkat cells; format: cell-based, human; details: PMA and ionomycin stimulated; peptide 2.5 μM, 96 hours; cell lysates
Method: In brief, wild-type Jurkat cells (1×10^6 cells) were cultured in standard RPMI medium and 10% foetal calf serum as above and either not stimulated or stimulated with PMA (50 ng/ml) and ionomycin for a period of 96 hours. Cells were exposed to the test peptides (2.5 μM conc.) listed in FIG. 10 for the entire 96 hour culture period, and IL-2R alpha levels were determined in cell lysates using a standard commercial ELISA format as described above.

CD4+ T cells = assay: IL-21 production by CD4+ T cells; format: cell-based; details: anti-CD3 anti-CD28, 48 hr; detected in one donor only
Method: In brief, CD4+ T cells were isolated and cultured in the presence of anti-CD3 anti-CD28 stimulation and RSKAKNPLY-RRRRRRRRR (SEQ ID NO: 24) for 24 hr or 48 hr. At the end of culture, supernatants were assessed for IL-21 by ELISA.

Substance: RRRRRRRRR [IK00900]
- IFN-γ secretion relative to no peptide control [1]: induced IFN-γ secretion
- IFN-γ secretion relative to no peptide control (human PBMCs): induce IFN-γ secretion
- IL-12 (IL-12p70) secretion relative to cultures with anti-CD40L blocking antibody [2]: induced IL-12 secretion
- IFN-γ secretion relative to no peptide control [3]: induced IFN-γ secretion
- IL-2 secretion relative to control [4]: induce IL-2 secretion
- IL-12 secretion relative to control (wild-type Jurkat cells [5]): induced IL-12 secretion
- IL-21R expression (isolated CD4+ T cells): do not increase IL-21R expression
- IL-2 secretion relative to control (wild-type Jurkat cells [6]): induces IL-2 secretion

Substance: RSKAKNPLY-RRRRRRRRR-HHHHHHHHHHHH (RSKAKNPLYRRRRRRRRRHHHHHHHHHHHH) [IK14820]
- IL-2R alpha (CD25) expression (wild-type Jurkat cells [7]): increased

Substance: IL-6: control in FIG. 28 showing boost to IL-21 secretion
- IL-21 production (CD4+ T cells): boost to IL-21 secretion

Substance: rskaknply ([dR][dS][dK][dA][dK][dN][dP][dL][dY]) [IKD94000]
- IL-12 secretion relative to control (wild-type Jurkat cells [5]): increase IL-12 secretion

Substance: RSKAKNPLY-RRRRRRRRRR (RSKAKNPLYRRRRRRRRRR) [IK14900]
- IL-2R alpha (CD25) expression (wild-type Jurkat cells [7]): increased

Substance: HHHHH-RSKAKNPLY-RRRRRRRRR (HHHHHRSKAKNPLYRRRRRRRRR) [IK11480]
- IL-2R alpha (CD25) expression (wild-type Jurkat cells [7]): increased
